Test systems include Vibrio alginolyticus; Vibrio vulnificus 204; Acinetobacter junii RT-4; Bacillus megaterium Bm11; Escherichia coli D21; Saccharomyces cerevisiae; Staphylococcus capitis 1; Pseudomonas aeruginosa; Staphylococcus aureus; Streptococcus agalactiae; Bacillus anthracis; Bacillus cereus; Escherichia coli; Bacillus subtilis 168; Candida albicans CA14; Escherichia coli K-12.
What all share (test): ≥ marks a high value that may be exact or a test limit, other limits are often not marked, values filed in µg/mL are converted to µM
In assay [1] the test system is Aeromonas hydrophila BCRC 13018.
For assay [2], the system named is Enterococcus faecalis BCRC 10066.
For assay [3], the system named is Pseudomonas aeruginosa ATCC 19660.
Assay [4] concerns Streptococcus agalactiae 819.
For assay [5], the system named is Streptococcus agalactiae BCRC 10787.
The test system of assay [6] is Acinetobacter baumannii ATCC 19606.
Assay [7] concerns Candida albicans ATCC 10231.
Assay [8] concerns Enterococcus faecalis ATCC 29212.
The subject of assay [9] is Escherichia coli ATCC 25922.
In assay [10] the test system is Pseudomonas aeruginosa ATCC 15692.
Assay [11] relates to Pseudomonas aeruginosa ATCC 27853.
In assay [12] the test system is Pseudomonas syringae pv. tabaci 1918NCPPB.
Assay [13] relates to Schizosaccharomyces pombe.
Assay [14] concerns Staphylococcus aureus ATCC 25923.
Assay [15] concerns Staphylococcus aureus Cowan 1.
Assay [16] concerns Staphylococcus epidermidis ATCC 12228.
Assay [17] concerns Streptococcus pyogenes ATCC 21547.
Assay [18] has as its system Yersinia pseudotuberculosis YPIII.
Assay [19] relates to Micrococcus luteus BCRC 11034.
Assay [20] concerns Staphylococcus aureus BCRC 10780.
For assay [21], the system named is Staphylococcus sp. BCRC 10451.
The test system of assay [22] is Streptococcus pneumoniae BCRC 10794.
In assay [23] the test system is Vibrio harveyi BCRC 13812.
For assay [24], the system named is Bacillus subtilis KCTC 3068.
The subject of assay [25] is Escherichia coli KCTC 1682.
Assay [26] relates to Malassezia sympodialis ATCC 42132.
Assay [27] relates to Pseudomonas aeruginosa KCTC 1637.
Assay [28] relates to Saccharomyces cerevisiae BY4741.
Assay [29] deals with Salmonella typhimurium KCTC 1926.
The test system of assay [30] is Staphylococcus aureus KCTC 1621.
Assay [31] deals with Staphylococcus aureus RN4220.
For assay [32], the system named is Staphylococcus epidermidis KCTC 1917.

≈ marks a conversion by molar mass, not a printed value.

For `CC[C@H](C)[C@H](NC(=O)[C@H](C)NC(=O)[C@H](CCCN=C(N)N)NC(=O)[C@H](Cc1cnc[nH]1)NC(=O)[C@@H](NC(=O)[C@H](C)NC(=O)[C@H](CCCN=C(N)N)NC(=O)[C@@H](NC(=O)CNC(=O)[C@H](Cc1cnc[nH]1)NC(=O)[C@H](CO)NC(=O)[C@@H](NC(=O)[C@H](Cc1c[nH]c2ccccc12)NC(=O)CNC(=O)[C@@H](NC(=O)[C@@H](NC(=O)[C@H](Cc1cnc[nH]1)NC(=O)[C@H](Cc1cnc[nH]1)NC(=O)[C@@H](NC(=O)[C@@H](N)Cc1ccccc1)[C@@H](C)CC)[C@@H](C)CC)[C@@H](C)CC)[C@@H](C)CC)C(C)C)[C@@H](C)CC)C(=O)N[C@@H](Cc1cnc[nH]1)C(=O)NCC(N)=O` [FIHHIIGWISHGVRAIHRAIHG], the MIC in assay [1] worked out at 7.82 µM (≈ 19.8 µg/mL); in assay [2], 3.91 µM (≈ 9.89 µg/mL); in assay [3], 7.82 µM (≈ 19.8 µg/mL); in assay [4], 3.91 µM (≈ 9.89 µg/mL); in assay [5], 0.123 µM (≈ 0.31 µg/mL); in the assay on Vibrio alginolyticus, 0.49 µM (≈ 1.24 µg/mL). The MIC in the assay with Vibrio vulnificus 204 stood at 0.245 µM (≈ 0.62 µg/mL).
Turning to `CC[C@H](C)[C@H](NC(=O)[C@H](CCCN=C(N)N)NC(=O)CNC(=O)[C@H](CC(C)C)NC(=O)[C@H](Cc1ccccc1)NC(=O)[C@H](CCCCN)NC(=O)[C@H](CO)NC(=O)[C@H](Cc1ccccc1)NC(=O)[C@H](Cc1c[nH]c2ccccc12)NC(=O)[C@@H]1CCCN1C(=O)[C@@H](NC(=O)[C@@H](N)Cc1ccccc1)C(C)C)C(=O)N[C@@H](CC(C)C)C(N)=O` [FVPWFSKFLGRIL], the MIC turned out to be 6 µM (≈ 9.65 µg/mL) in assay [6]; 6 µM (≈ 9.65 µg/mL) against Acinetobacter junii RT-4; 1.5 µM (≈ 2.41 µg/mL) in the assay with Bacillus megaterium Bm11; 6 µM (≈ 9.65 µg/mL) in [7]; 6 µM (≈ 9.65 µg/mL) in assay [8]; 24 µM (≈ 38.6 µg/mL) in assay [9]. Also, the MIC against Escherichia coli D21 was 12 µM (≈ 19.3 µg/mL); in assay [10] it was 24 µM (≈ 38.6 µg/mL); in [11], > 48 µM; in assay [12] it was 6 µM (≈ 9.65 µg/mL); in the assay with Saccharomyces cerevisiae, 6 µM (≈ 9.65 µg/mL); in assay [13], 3 µM (≈ 4.83 µg/mL). Besides, the MIC was 3 µM (≈ 4.83 µg/mL) in assay [14]; 1.5 µM (≈ 2.41 µg/mL) in assay [15]; 1.5 µM (≈ 2.41 µg/mL) against Staphylococcus capitis 1; 1.5 µM (≈ 2.41 µg/mL) in [16]; 6 µM (≈ 9.65 µg/mL) in [17]; 3 µM (≈ 4.83 µg/mL) in assay [18].
As to `CC[C@H](C)[C@H](NC(=O)[C@H](CCSC)NC(=O)[C@H](CCCCN)NC(=O)CNC(=O)[C@H](C)NC(=O)[C@H](Cc1cnc[nH]1)NC(=O)[C@H](Cc1ccccc1)NC(=O)[C@H](CC(C)C)NC(=O)CNC(=O)[C@H](CCCCN)NC(=O)[C@@H](NC(=O)[C@@H](NC(=O)[C@H](Cc1cnc[nH]1)NC(=O)[C@H](Cc1ccccc1)NC(=O)[C@@H](NC(=O)[C@H](Cc1ccccc1)NC(=O)CNC(C)=O)[C@@H](C)CC)[C@@H](C)CC)[C@@H](C)CC)C(=O)N[C@@H](Cc1cnc[nH]1)C(=O)NCC(=O)N[C@@H](CC(C)C)C(=O)N[C@H](C(N)=O)C(C)C` [GFIFHIIKGLFHAGKMIHGLV], the MIC in [19] was 2.68 µM (≈ 6.36 µg/mL); against Pseudomonas aeruginosa, 5.35 µM (≈ 12.7 µg/mL); in [20], 21.4 µM (≈ 50.9 µg/mL); against Staphylococcus aureus, 5.35 µM (≈ 12.7 µg/mL); in assay [21] it was 2.68 µM (≈ 6.36 µg/mL); with Streptococcus agalactiae, ≥ 42.8 µM. In addition, the MIC in [22] worked out at 21.4 µM (≈ 50.9 µg/mL); in the assay on Vibrio alginolyticus, 2.68 µM (≈ 6.36 µg/mL); in assay [23], 2.68 µM (≈ 6.36 µg/mL); in the assay on Vibrio vulnificus 204, 21.4 µM (≈ 50.9 µg/mL).
For `CC(C)C[C@H](NC(=O)[C@H](Cc1ccccc1)NC(=O)[C@@H]1CCCN1C(=O)[C@H](Cc1ccccc1)NC(=O)[C@@H](NC(=O)[C@H](Cc1ccccc1)NC(=O)[C@H](CC(C)C)NC(=O)[C@@H](NC(=O)[C@H](CCCCN)NC(=O)[C@@H](NC(=O)[C@H](CCCCN)NC(=O)[C@H](CCCCN)NC(=O)[C@H](C)NC(=O)CNC(=O)[C@H](C)NC(=O)[C@@H](NC(=O)[C@H](CO)NC(=O)[C@@H](NC(=O)CN)C(C)C)C(C)C)C(C)C)C(C)C)C(C)C)C(=O)N[C@@H](Cc1ccccc1)C(=O)O` [GVSVAGAKKVKVLFVFPFLF], the MIC in the assay with Bacillus anthracis is ≥ 119 µM; against Bacillus cereus, ≥ 119 µM; in the assay on Escherichia coli, > 119 µM; against Staphylococcus aureus, > 119 µM.
With `CC[C@H](C)[C@H](NC(=O)[C@H](CCCN=C(N)N)NC(=O)[C@H](CCCN=C(N)N)NC(=O)[C@H](CCCN=C(N)N)NC(=O)[C@H](CC(C)C)NC(=O)[C@@H](NC(=O)[C@@H](NC(=O)[C@H](CC(C)C)NC(=O)[C@@H](N)CC(C)C)[C@@H](C)CC)[C@@H](C)CC)C(=O)N[C@@H](CCCN=C(N)N)C(=O)N[C@@H](CCCCN)C(=O)N[C@@H](CCC(N)=O)C(=O)N[C@@H](C)C(=O)N[C@@H](Cc1cnc[nH]1)C(=O)N[C@@H](C)C(=O)N[C@@H](Cc1cnc[nH]1)C(=O)N[C@@H](CO)C(=O)N[C@@H](CCCCN)C(N)=O` [LLIILRRRIRKQAHAHSK], the MIC in the assay with Bacillus subtilis 168 stood at 10 µM (≈ 22.1 µg/mL); in assay [24] it was 4 µM (≈ 8.83 µg/mL); with Candida albicans CA14, 10 µM (≈ 22.1 µg/mL); with Escherichia coli K-12, 10 µM (≈ 22.1 µg/mL); in assay [25], 16 µM (≈ 35.3 µg/mL); in assay [26], 4.98 µM (≈ 11 µg/mL). Further, the MIC in [27] is 8 µM (≈ 17.7 µg/mL); in [28] it was 10 µM (≈ 22.1 µg/mL); in assay [29], 4 µM (≈ 8.83 µg/mL); in assay [30], 4 µM (≈ 8.83 µg/mL); in assay [31] it was 10 µM (≈ 22.1 µg/mL); in assay [32] it was 8 µM (≈ 17.7 µg/mL).

For the origin of these results see DBAASP.
